In publication PMC12245108 (Advanced Science, 2025):
Where a SMILES comes first, the peptide text is derived from it. The star is where a group is joined. NHCH2CN = N#CCN*

Key:
MPXV I7L protease = MPXV I7L protease (Monkeypox virus, UniProt Q8V512); test: biochemical; conditions: for inhibition at 100 µM: pH 7.5, read-out: inhibition rate
Vaccinia virus = test: microbe, parasite or virus in culture; type: cell-based; conditions: Orthopoxvirus vaccinia, HeLa, 24 h, read-out: EC50 for vaccinia virus replication inhibition
in vitro = conditions: human

| SMILES | inhibition at 100 µM (MPXV I7L protease) | IC50 (MPXV I7L protease) | other results |
| --- | --- | --- | --- |
| CC(C)(C)NC(=O)N[C@H](C(=O)N1C[C@H]2[C@@H]([C@H]1C(=O)NC(CC1CCC1)C(=O)C(N)=O)C2(C)C)C(C)(C)C (stereo partly shown) [Boceprevir, reference compound] | < 50% | – | – |
| CCCCCCCCCCCCCCCCOCCCOP(=O)(O)CO[C@H](CO)Cn1ccc(N)nc1=O [Brincidofovir, reference compound] | – | – | EC50 (Vaccinia virus): 900 nM |
| Cn1cnc(Cn2c(=O)[nH]/c(=N\c3cc4cn(C)nc4cc3Cl)n(Cc3cc(F)c(F)cc3F)c2=O)n1 [Ensitrelvir, reference compound] | < 50% | – | – |
| CC(C)C[C@H](NC(=O)OCc1ccccc1)C(=O)N[C@@H](C[C@@H]1CCNC1=O)C(O)S(=O)(=O)[O-].[Na+] (stereo partly shown) [GC376, reference compound] | – | – | inhibition rate (MPXV I7L protease; pH 7.5): below 50% |
| Cc1cccc(C)c1OCC(=O)N[C@@H](Cc1ccccc1)[C@@H](O)C[C@H](Cc1ccccc1)NC(=O)[C@H](C(C)C)N1CCCNC1=O [Lopinavir, reference compound] | < 50% | – | – |
| CCCC[C@H](NC(=O)[C@@H]1[C@@H]2[C@H](CN1C(=O)[C@@H](NC(=O)NC1(CS(=O)(=O)C(C)(C)C)CCCCC1)C(C)(C)C)C2(C)C)C(=O)C(=O)NC1CC1 [Narlaprevir, reference compound] | < 50% | – | – |
| CC(C)(C)[C@H](NC(=O)C(F)(F)F)C(=O)N1C[C@H]2[C@@H]([C@H]1C(=O)N[C@H](C#N)C[C@@H]1CCNC1=O)C2(C)C [Nirmatrelvir, reference compound] | < 50% | – | – |
| CC(C)c1nc(CN(C)C(=O)N[C@H](C(=O)N[C@@H](Cc2ccccc2)C[C@H](O)[C@H](Cc2ccccc2)NC(=O)OCc2cncs2)C(C)C)cs1 [Ritonavir, reference compound] | < 50% | – | – |
| CCC[C@H](NC(=O)[C@@H]1[C@H]2CCC[C@H]2CN1C(=O)[C@@H](NC(=O)[C@@H](NC(=O)c1cnccn1)C1CCCCC1)C(C)(C)C)C(=O)C(=O)NC1CC1 [Telaprevir, reference compound] | < 50% | – | – |
| CC[C@H](C)[C@H](NC(C)=O)C(=O)N[C@@H](Cc1ccccc1)C(=O)N[C@@H](Cc1ccccc1)C(=O)N[C@@H](C)C(=O)NCC#N [compound 1, (2S,3S)-2-acetamido-N-((S)-1-(((S)-1-(((S)-1-((cyanomethyl)amino)-1-oxopropan-2-yl)amino)-1-oxo-3-phenylpropan-2-yl)amino)-1-oxo-3-phenylpropan-2-yl)-3-methylpentanamide] (Ac-IFFA-NHCH2CN) | – | 171 nM | – |
| CC[C@H](C)[C@H](NC(=O)[C@@H](NC(=O)[C@H](CCSC)NC(C)=O)C(C)C)C(=O)N[C@@H](C)C(=O)NCC#N [compound 2, (2S,3S)-2-((S)-2-((S)-2-acetamido-4-(methylthio)butanamido)-3-methylbutanamido)-N-((S)-1-((cyanomethyl)amino)-1-oxopropan-2-yl)-3-methylpentanamide] (Ac-MVIA-NHCH2CN) | – | 132 nM | – |
| CC(=O)N[C@@H](Cc1ccc(O)cc1)C(=O)N[C@@H](Cc1ccccc1)C(=O)N[C@@H](Cc1ccc(O)cc1)C(=O)N[C@@H](C)C(=O)NCC#N [compound 3, (S)-2-acetamido-N-((S)-1-(((S)-1-(((S)-1-((cyanomethyl)amino)-1-oxopropan-2-yl)amino)-3-(4-hydroxyphenyl)-1-oxopropan-2-yl)amino)-1-oxo-3-phenylpropan-2-yl)-3-(4-hydroxyphenyl)propanamide] (Ac-YFYA-NHCH2CN) | – | 79 ± 15 nM | – |
| CC[C@H](C)[C@H](NC(C)=O)C(=O)N[C@H](C(=O)N[C@@H](CC(N)=O)C(=O)N[C@@H](C)C(=O)NCC#N)[C@@H](C)O [compound 4, (S)-2-((2S,3R)-2-((2S,3S)-2-acetamido-3-methylpentanamido)-3-hydroxybutanamido)-N^1-((S)-1-((cyanomethyl)amino)-1-oxopropan-2-yl)succinamide] (Ac-ITNA-NHCH2CN) | – | 1620 nM | – |
| CC(=O)N[C@@H](CC(=O)O)C(=O)N[C@@H](Cc1ccccc1)C(=O)N[C@@H](CO)C(=O)N[C@@H](C)C(=O)NCC#N [compound 6, (4S,7S,10S,13S)-13-acetamido-10-benzyl-1-cyano-7-(hydroxymethyl)-4-methyl-3,6,9,12-tetraoxo-2,5,8,11-tetraazapentadecan-15-oic acid] (Ac-DFSA-NHCH2CN) | – | 74 ± 29 nM | – |
| CC[C@H](C)[C@H](NC(=O)[C@H](Cc1ccc(O)cc1)NC(=O)[C@@H]1CCCN1C(C)=O)C(=O)N[C@@H](C)C(=O)NCC#N [compound 7, (S)-1-acetyl-N-((S)-1-(((2S,3S)-1-(((S)-1-((cyanomethyl)amino)-1-oxopropan-2-yl)amino)-3-methyl-1-oxopentan-2-yl)amino)-3-(4-hydroxyphenyl)-1-oxopropan-2-yl)pyrrolidine-2-carboxamide] (Ac-PYIA-NHCH2CN) | – | 241 ± 29 nM | – |
| CC[C@H](C)[C@H](NC(C)=O)C(=O)N[C@@H](Cc1ccccc1)C(=O)N[C@@H](CC(N)=O)C(=O)N[C@@H](C)C(=O)NCC#N [compound 8, (S)-2-((S)-2-((2S,3S)-2-acetamido-3-methylpentanamido)-3-phenylpropanamido)-N^1-((S)-1-((cyanomethyl)amino)-1-oxopropan-2-yl)succinamide] (Ac-IFNA-NHCH2CN) | – | 71 nM | – |
| CC[C@H](C)[C@H](NC(=O)[C@@H](NC(C)=O)C(C)C)C(=O)N[C@@H](C)C(=O)NCC#N [compound 9, (2S,3S)-2-((S)-2-acetamido-3-methylbutanamido)-N-((S)-1-((cyanomethyl)amino)-1-oxopropan-2-yl)-3-methylpentanamide] | – | 400 nM | – |
| CC[C@H](C)[C@H](NC(=O)Cc1ccccc1)C(=O)N[C@@H](C)C(=O)NCC#N [compound 10, (2S,3S)-N-((S)-1-((cyanomethyl)amino)-1-oxopropan-2-yl)-3-methyl-2-(2-phenylacetamido)pentanamide] | – | 122 nM | CC50 (in vitro): > 400000 nM; cytotoxicity (HeLa cells): no detectable cytotoxicity; EC50 (Vaccinia virus): 6300 nM |
| CC[C@H](C)[C@H](NC(=O)[C@@H](C)c1ccccc1)C(=O)N[C@@H](C)C(=O)NCC#N [compound 11, (2S,3S)-N-((S)-1-((cyanomethyl)amino)-1-oxopropan-2-yl)-3-methyl-2-((S)-2-phenylpropanamido)pentanamide] | – | 69 nM | CC50 (in vitro): > 400000 nM; cytotoxicity (HeLa cells): no detectable cytotoxicity; EC50 (Vaccinia virus): 6000 nM |
